In patent US20150275187A1, “FURFURAL-RESISTANT GENE AND FURFURAL-RESISTANT STRAINS COMPRISING THE SAME” (KOREA INSTITUTE OF SCIENCE AND TECHNOLOGY, priority 2014, published 2015):

Experiments:
[1] = tested on: cg1310 (rolM, Maleylacetate reductase) mRNA; assay: Microarray gene expression depending on furfural concentration; format: cell-based, Corynebacterium glutamicum; conditions: against wild type in medium not containing furfural
From the text: As a result, among the genes, which are expected to have similarity, cg1310 (SEQ ID No.: 2) showing increased expression at microarray is selected as the target gene. And, information about the selected target gene, and expression level of the target gene depending on the furfural concentration in the medium, which is obtained by analyzing gene expression pattern thereof depending on the furfural concentration using microarray, are shown in the following Table 1.
As a result of analysis, compared with the medium not containing the furfural, the mRNA expression level of the target gene is increased in the medium containing the furfural, and the mRNA expression level of the target gene is further increased when the furfural concentration is increased from 6.5 mM to 13 mM.
(§1) DNA Microarray is used as a method for analyzing gene expression depending on the furfural stress.

[2] = tested on: cg3374 (cye1, Putative NADH-dependent flavin oxidoreductase) mRNA; assay: as above; format: cell-based, Corynebacterium glutamicum; conditions: against wild type in medium not containing furfural
From the text: as §1
(§2) Specifically, among genes corresponding to the module classified at http://www.coryneregnet.de/ of entire genes, and genes, whose corresponding protein names contain at least one of transport, permease and pump, genes showing increased expression level at all furfural concentrations are selected, and then, genes showing about 10 folds or more increased expression level at least one concentration are selected. And, among the selected genes, existing genes, which are known to response to stress, are excluded by literature search, and cg0310 (SEQ ID No.: 3), cg1661 (SEQ ID No.: 1), cg3374 (SEQ ID No.: 4) and cg3399 (SEQ ID No.: 5) are selected as the target gene. These are catalase, efflux pump in the cell membrane, oxidoreductase and permease-type genes. Then, information of the target genes selected by microarray, and expression levels of the target genes depending on the furfural concentration in the medium, which are obtained by analyzing gene expression pattern thereof using microarray, are shown in the following Table 2.
(§3) The gene expression levels of the above Table 2 show the relative mRNA expression levels of the target genes of the wild type strain grown in the medium containing the furfural, against the wild type strain grown without stress in the medium not containing the furfural. As a result of analysis, compared with the medium not containing the furfural, the mRNA expression levels of each target gene are increased in the medium containing the furfural, and the mRNA expression levels of the target genes are further increased as the furfural concentration is increased.

[3] = tested on: cg1661 (Arsenite efflux pump ACR3 or related permease) mRNA; assay: as above; format: cell-based, Corynebacterium glutamicum; conditions: against wild type in medium not containing furfural
From the text: as §1, §2, §3

[4] = tested on: cg3399 (Permease of the major facilitator superfamily) mRNA; assay: as above; format: cell-based, Corynebacterium glutamicum; conditions: against wild type in medium not containing furfural
From the text: as §1, §2, §3

[5] = tested on: cg0310 (katA, catalase) mRNA; assay: as above; format: cell-based, Corynebacterium glutamicum; conditions: against wild type in medium not containing furfural
From the text: as §1, §2, §3

[6] = tested on: Corynebacterium glutamicum ATCC 13032; assay: Growth inhibitory effect of furfural in wild type strain; format: cell-based
Experimental: In order to develop a furfural-resistant strain, first of all, Corynebacterium glutamicum is selected as a wild type, and then, growth inhibitory effect of furfural at Corynebacterium glutamicum wild type strain (wild type), which is Corynebacterium glutamicum ATCC 13032, depending on concentration, and concentrations of furfural and furfuryl alcohol in a culture solution depending on cell growth are confirmed.
Specifically, as the culture solution, 2% glucose as a carbon source is added to a minimal medium, CGXII medium, and furfural of 6.5 mM, 13 mM and 20 mM are added thereto, respectively, to compare growth speed with the case not adding the furfural. At this time, the composition of the CGXII medium is 20 g/L (NH4)2504, 5 g/L Urea, 1 g/L KH2PO4, 1 g/L K2HPO4, 0.25 g/L MgSO4.7H2O, 42 g/L MOPS, 10 mg/L CaCl2, 0.2 mg/L Biotin, 0.03 g/L Protecatechuic acid, Trace metal (10 mg/L FeSO4.7H2O, 10 mg/L MnSO4.H2O, 1 mg/L ZnSO4.7H2O, 0.2 mg/L CuSO4.7H2O, 0.02 mg/L NiCl2.6H2O). Culture is conducted at 30° C. after inoculating the cells (initial OD600=1) into the culture solution 50 mL in a 250 mL Erlenmeyer flask.

[7] = Furfural Conc. in Medium: 6.5 mM
[8] = Furfural Conc. in Medium: 13 mM
[9] = Furfural Conc. in Medium: 20 mM

For O=Cc1ccco1 [furfural], the “Gene Expression Level (relative mRNA) cg1310” value [1, 7] was 1.476, the “Gene Expression Level (relative mRNA) cg1310” value [1, 8] was 2.872 and the “Gene Expression Level (relative mRNA) cg1310” value [1, 9] was 2.183. The “Gene Expression Level (relative mRNA) cg3374” value [2, 7] was 1.461, the “Gene Expression Level (relative mRNA) cg3374” value [2, 8] was 3.219 and the “Gene Expression Level (relative mRNA) cg3374” value [2, 9] was 29.016. For the same compound, the “Gene Expression Level (relative mRNA) cg1661” value [3, 7] was 7.240, the “Gene Expression Level (relative mRNA) cg1661” value [3, 8] was 3.071 and the “Gene Expression Level (relative mRNA) cg1661” value [3, 9] was 13.186. The “Gene Expression Level (relative mRNA) cg3399” value [4, 7] was 4.485, the “Gene Expression Level (relative mRNA) cg3399” value [4, 8] was 6.529 and the “Gene Expression Level (relative mRNA) cg3399” value [4, 9] was 15.694. For the same compound, the “Gene Expression Level (relative mRNA) cg0310” value [5, 7] was 3.219, the “Gene Expression Level (relative mRNA) cg0310” value [5, 8] was 3.443 and the “Gene Expression Level (relative mRNA) cg0310” value [5, 9] was 10.956. For the same compound, the “growth reduction compared with the medium not containing the furfural” value ([6]; 6.5 mM furfural, CGXII medium with 2% glucose, 30° C.) was no less than 50% and the “growth speed of the strain” value ([6]; furfural 6.5, 13 and 20 mM in CGXII medium) was “becomes slow as the furfural concentration in the medium is increased”.
